Measured values published in patent US10947574B2, “Method for producing fermented carotenoid using carotenoid-producing bacteria obtained by using cobalt-containing culturing medium” (ENEOS CORPORATION, priority 2015, dated 2021).

system: Paracoccus carotinifaciens strain E-396 (FERM BP-4283); format: cell-based; conditions: each trace metal added singly at final concentration of Table 1; shaking at 28° C. for 4 days
Experimental: Subsequently, a medium of the following composition (glucose 30 g/L, filtered corn steep liquor 30 g/L, ammonium sulfate 1.5 g/L, potassium dihydrogen phosphate 1.5 g/L, disodium hydrogen phosphate dodecahydrate 3.8 g/L, calcium chloride dihydrate 5.0 g/L, magnesium sulfate heptahydrate 0.7 g/L, iron sulfate heptahydrate 1.0 g/L, silicon-based defoaming agent 0.2 g/L) was dispensed in 7.2 ml volumes into cotton-plugged test tubes having an inner diameter of 18 mm to prepare 13 test tubes containing a test tube medium for production. The ingredients used to prepare the test tube medium for production were obtained from lots where microbial cells had been confirmed not to grow well.
The 12 trace metals indicated in Table 1 were separately prepared in 0.8 ml volumes to have their final concentrations indicated in Table 1 and then added to the above 12 test tubes for production, respectively. The remaining one test tube was supplemented with 0.8 ml of ion exchanged water.
The resulting culture solution was then inoculated in 0.05 ml volumes into the 13 types of test tube media for production and cultured under shaking at 28° C. for 4 days at 300 spm.

First: OB(O)O [Boric acid]
Second: O=[Se](=O)(O)O [Sodium selenate]
The OD610 of the first is higher: 4 for the first, 3 for the second.

Compared with `O.O.O.O.O.O.[Cl][Cr]([Cl])[Cl]` [Chromium (III) chloride hexahydrate], `O.O.[Na+].[Na+].[O]=[Mo](=[O])([O-])[O-]` [Sodium molybdate dihydrate] is higher in OD610: 3 for the first, 4 for the second.

`[I-].[K+]` [Potassium iodide] and `[Na+].[Na+].[O]=[W](=[O])([O-])[O-]` [Sodium tungstate] are the same in OD610: 4 for the first, 4 for the second.
